Like-named read-outs stand apart in the source and are kept apart here.
What was measured:
PC-3 xenografts = experiment: Biodistribution in mice bearing PC-3 xenografts; type: in vivo, Balb/c nu/nu mice; conditions: PC-3 xenografted mice, between 4 and 24 h pi
Procedure: (§1) Each mouse was xenografted with a subcutaneous injection of 8 × 10⁶ PC-3 cells in the right hind leg. After approximately 4 weeks, the animals were injected into the tail vein with 100 µL of radiopeptide (100 pmol—110–130 kBq, diluted in PBS/BSA). Four animals were used for each time point per peptide. […] At the determined time points, the mice were euthanized, organs were collected and weighed, and their activity content was measured in the gamma counter. Results were presented as the percentage of injected activity per gram (%IA/g) for the collected organs, and the percentage of injected activity (%IA) for the gastrointestinal tract (GI) and the carcass. […] Statistical analysis was performed with GraphPad Prism 10 using two way ANOVA with Tuckey’s or Šidák’a post hoc analysis.

[1] = Biodistribution in mice bearing PC-3 xenografts; type: in vivo, Balb/c nu/nu mice; conditions: mouse, total radioactivity, PC-3 xenografted Balb/c nu/nu mice, iv 100 pmol, mean ± SD; for tissue uptake at 2 h / tissue uptake at 4 h / tissue uptake at 24 h: Balb/c nu/nu, iv; for tissue uptake at 4 h / tissue uptake dose at 4 h: 4 h pi; for tissue uptake at 24 h / tissue uptake dose at 24 h: 24 h pi
Procedure: as §1

PC-3 cells = experiment: In vitro GRPR specificity assay (uptake with or without NOTA-PEG2-RM26 block); type: cell-based, human
Procedure: After discarding the medium, the cells were washed with cold (4 °C) phosphate-buffered saline containing 1% w/v bovine serum albumin (PBS/BSA). The radiopeptides (Cf = 1 nM in 1 mL PBS/BSA) were added to all wells. A subset of wells was also treated with an excess of unlabeled GRPR-binding peptide NOTA-PEG2-RM26 (Bjäreback et al. [2025]) (Cf = 1 µM in 1 mL PBS/BSA) to block GRPR. After incubation for 1 h at 37 °C, the supernatant was removed, and the cells were washed and then collected by treating them with 1 M NaOH. The activity of the collected samples was measured with the gamma counter. This assay was performed in triplicate for each radiopeptide.

[2] = In vivo stability: intact radiopeptide in peripheral mouse blood 5 min pi, radio-HPLC; conditions: for Percentage of intact peptide, Entresto: blood 5 min pi
Procedure: Two animals per peptide were injected intravenously with a bolus of test radioligand (50 MBq, 2 nmol of peptide in 100 μL PBS/EtOH v/v 9:1) – Control group. To inhibit NEP, additional groups of two mice per compound were orally treated with 12 mg Entresto® (Novartis, Basel, Switzerland) 30 min before receiving the intravenous injection—Entresto group. Five minutes post-injection (pi), the animals were euthanized, and the blood was collected and immediately mixed with EDTA (0.1 mM, 40 μL) in Eppendorf tubes on ice. The mixture was spun at 2000 g for 10 min at 4 °C in an Eppendorf Centrifuge 5430 R (Eppendorf AG, Hamburg, Germany), and the plasma was collected and diluted with an equal volume of MeCN (4 °C). After a second centrifugation at 15,000 g and 4 °C for 10 min, the supernatant was collected in an Eppendorf tube and concentrated to 50–100 μL at 50 °C using a mild stream of N2. PBS was added to the samples to reach a final volume of 200 μL, and the solutions were filtered through a syringe filter (0.22 μm, 13 mm, VWR International, Radnor, USA). The filtered solution was analyzed by reversed-phase radio-HPLC to determine the percentage of intact peptides. The peak corresponding to the intact peptide was identified by injection of an aliquot of the labeling solution.

[3] = blood, 100 pmol, n = 4, read-out: Blood activity uptake
[4] = bone, 100 pmol, n = 4, read-out: Bone activity uptake
[5] = kidneys, 100 pmol, n = 4, read-out: Kidneys activity uptake
[6] = liver, 100 pmol, n = 4, read-out: Liver activity uptake
[7] = lungs, 100 pmol, n = 4, read-out: Lungs activity uptake
[8] = muscle, 100 pmol, n = 4, read-out: Muscle activity uptake
[9] = pancreas, 100 pmol, n = 4, read-out: Pancreas activity uptake
[10] = small intestine, 100 pmol, n = 4, read-out: Small Int. activity uptake
[11] = spleen, 100 pmol, n = 4, read-out: Spleen activity uptake
[12] = stomach, 100 pmol, n = 4, read-out: Stomach activity uptake
[13] = tumor, 100 pmol, n = 4, read-out: Tumor activity uptake
[14] = carcass, n = 4, read-out: Body activity uptake
[15] = gastrointestinal tract with content, n = 4, read-out: GI activity uptake

## CC(C)C[C@H](NC(=O)C[C@H](O)[C@H](CC(C)C)NC(=O)[C@H](Cc1c[nH]cn1)NC(=O)CN(C)C(=O)[C@@H](NC(=O)[C@H](C)NC(=O)[C@](C)(Cc1c[nH]c2ccccc12)NC(=O)[C@H](CCC(N)=O)NC(=O)[C@@H](Cc1ccccc1)NC(=O)CN1CCC(NC(=O)COCCOCCNC(=O)CN2CCN(CC(=O)O)CCN(CC(=O)O)CCN(CC(=O)O)CC2)CC1)C(C)C)C(N)=O [[^177Lu]Lu-PKB3, metal not drawn]
PC-3 xenografts
  tumor retention of activity: around 80%
[1]; blood, 100 pmol, 2 h pi, n = 4, read-out: Blood activity uptake
  tissue uptake at 2 h: 0.22 ± 0.04 %ID/g
[1]; [3]
  tissue uptake at 4 h: 0.09 ± 0.02 %ID/g
  tissue uptake at 24 h: 0.02 ± 0.01 %ID/g
[1]; blood, 2 h pi blocked (co-injected 100-fold molar excess NOTA-PEG2-RM26), n = 3, read-out: Blood activity uptake
  tissue uptake at 2 h: 0.13 ± 0.06 %ID/g
[1]; bone, 100 pmol, 2 h pi, n = 4, read-out: Bone activity uptake
  tissue uptake at 2 h: 0.16 ± 0.03 %ID/g
[1]; [4]
  tissue uptake at 4 h: 0.13 ± 0.04 %ID/g
  tissue uptake at 24 h: 0.08 ± 0.03 %ID/g
[1]; bone, 2 h pi blocked (co-injected 100-fold molar excess NOTA-PEG2-RM26), n = 3, read-out: Bone activity uptake
  tissue uptake at 2 h: 0.11 ± 0.03 %ID/g
[1]; kidneys, 100 pmol, 2 h pi, n = 4, read-out: Kidneys activity uptake
  tissue uptake at 2 h: 7.4 ± 1 %ID/g
[1]; [5]
  tissue uptake at 4 h: 5.9 ± 0.8 %ID/g
  tissue uptake at 24 h: 4.3 ± 0.8 %ID/g
[1]; kidneys, 2 h pi blocked (co-injected 100-fold molar excess NOTA-PEG2-RM26), n = 3, read-out: Kidneys activity uptake
  tissue uptake at 2 h: 5.4 ± 0.7 %ID/g
[1]; liver, 100 pmol, 2 h pi, n = 4, read-out: Liver activity uptake
  tissue uptake at 2 h: < 0.5 %ID/g
[1]; [6]
  tissue uptake at 4 h: 0.42 ± 0.03 %ID/g
  tissue uptake at 24 h: 0.24 ± 0.02 %ID/g
[1]; liver, 2 h pi blocked (co-injected 100-fold molar excess NOTA-PEG2-RM26), n = 3, read-out: Liver activity uptake
  tissue uptake at 2 h: 0.38 ± 0.05 %ID/g
[1]; lungs, 100 pmol, 2 h pi, n = 4, read-out: Lungs activity uptake
  tissue uptake at 2 h: 0.6 ± 0.3 %ID/g
[1]; [7]
  tissue uptake at 4 h: 0.24 ± 0.08 %ID/g
  tissue uptake at 24 h: 0.09 ± 0.01 %ID/g
[1]; lungs, 2 h pi blocked (co-injected 100-fold molar excess NOTA-PEG2-RM26), n = 3, read-out: Lungs activity uptake
  tissue uptake at 2 h: 0.27 ± 0.03 %ID/g
[1]; muscle, 100 pmol, 2 h pi, n = 4, read-out: Muscle activity uptake
  tissue uptake at 2 h: 0.09 ± 0.02 %ID/g
[1]; [8]
  tissue uptake at 4 h: 0.1 ± 0.1 %ID/g
  tissue uptake at 24 h: 0.02 ± 0.01 %ID/g
[1]; muscle, 2 h pi blocked (co-injected 100-fold molar excess NOTA-PEG2-RM26), n = 3, read-out: Muscle activity uptake
  tissue uptake at 2 h: 0.07 ± 0.05 %ID/g
[1]; pancreas, 100 pmol, 2 h pi, n = 4, read-out: Pancreas activity uptake
  tissue uptake at 2 h: 11.9 ± 2.1 %ID/g
[1]; [9]
  tissue uptake at 4 h: 4.7 ± 0.4 %ID/g
  tissue uptake at 24 h: 0.5 ± 0.2 %ID/g
[1]; small intestine, 100 pmol, 2 h pi, n = 4, read-out: Small Int. activity uptake
  tissue uptake at 2 h: 2.2 ± 0.6 %ID/g
[1]; [10]
  tissue uptake at 4 h: 1 ± 0.3 %ID/g
  tissue uptake at 24 h: 0.11 ± 0.03 %ID/g
[1]; small intestine, 2 h pi blocked (co-injected 100-fold molar excess NOTA-PEG2-RM26), n = 3, read-out: Small Int. activity uptake
  tissue uptake at 2 h: 0.7 ± 0.3 %ID/g
[1]; spleen, 100 pmol, 2 h pi, n = 4, read-out: Spleen activity uptake
  tissue uptake at 2 h: 0.4 ± 0.2 %ID/g
[1]; [11]
  tissue uptake at 4 h: 0.25 ± 0.07 %ID/g
  tissue uptake at 24 h: 0.16 ± 0.06 %ID/g
[1]; spleen, 2 h pi blocked (co-injected 100-fold molar excess NOTA-PEG2-RM26), n = 3, read-out: Spleen activity uptake
  tissue uptake at 2 h: 0.13 ± 0.02 %ID/g
[1]; stomach, 100 pmol, 2 h pi, n = 4, read-out: Stomach activity uptake
  tissue uptake at 2 h: 2.5 ± 0.2 %ID/g
[1]; [12]
  tissue uptake at 4 h: 1.9 ± 0.3 %ID/g
  tissue uptake at 24 h: 0.16 ± 0.05 %ID/g
[1]; stomach, 2 h pi blocked (co-injected 100-fold molar excess NOTA-PEG2-RM26), n = 3, read-out: Stomach activity uptake
  tissue uptake at 2 h: 0.6 ± 0.1 %ID/g
[1]; tumor, 100 pmol, 2 h pi, n = 4, read-out: Tumor activity uptake
  tissue uptake at 2 h: 23.8 ± 2.5 %ID/g
[1]; [13]
  tissue uptake at 4 h: 18.8 ± 0.7 %ID/g
  tissue uptake at 24 h: 15.3 ± 2.7 %ID/g
[1]; tumor, 2 h pi blocked (co-injected 100-fold molar excess NOTA-PEG2-RM26), n = 3, read-out: Tumor activity uptake
  tissue uptake at 2 h: 3.4 ± 0.3 %ID/g
[1]; carcass, 2 h pi, n = 4, read-out: Body activity uptake
  tissue uptake dose at 2 h: 2.7 ± 0.8 %ID
[1]; [14]
  tissue uptake dose at 4 h: 2.2 ± 0.4 %ID
  tissue uptake dose at 24 h: 1.1 ± 0.7 %ID
[1]; gastrointestinal tract with content, 2 h pi, n = 4, read-out: GI activity uptake
  tissue uptake dose at 2 h: 2 ± 0.2 %ID
[1]; [15]
  tissue uptake dose at 4 h: 0.4 ± 0.3 %ID
  tissue uptake dose at 24 h: 0.16 ± 0.03 %ID
PC-3 cells; 1 nM radiopeptide, 1 h at 37 °C, block with 1 µM NOTA-PEG2-RM26, n = 3
  in vitro binding specificity: GRPR-mediated activity uptake
PC-3 cells; 1 nM, 37 °C, n = 3
  total cellular activity uptake (rank among the three radiopeptides): highest
[2]; NMRI mice, 12 mg Entresto orally 30 min before injection, recorded value n1
  Percentage of intact peptide, Entresto: 90% [90% - 90%]
[2]; NMRI mice, 12 mg Entresto orally 30 min before injection, recorded value n2
  Percentage of intact peptide, Entresto: 90% [90% - 90%]
[2]; healthy NMRI mice, 12 mg Entresto orally 30 min before iv injection (NEP inhibition), radio-HPLC, mean of n = 2
  Percentage of intact peptide, Entresto: 90% [90% - 90%]
[2]; healthy NMRI mice, iv 50 MBq, 2 nmol, peripheral blood 5 min pi, radio-HPLC, mean of n = 2
  Percentage of intact peptide, Control: 91% [88% - 94%]
